For assay [1], the system named is Mus musculus. Kind of assay: Average weight of the mouse after treating with 400 mg/kg dose for 7 day. The assay is classed as functional.
Assay [2] concerns L1210. Description: In vivo antitumor activity against L1210 leukemia in 5 mice measured as Increased life span at 400 mg/kg. The assay is classed as functional, Mus musculus.
The test system of assay [3] is Mus musculus. Kind of assay: Average weight of the mouse after treating with 400 mg/kg dose for 1 day. The class given is functional.
Assay [4] has as its system L1210. Kind of assay: In vivo antitumor activity against L1210 leukemia in 5 mice measured as median survival range at 400 mg/kg; Value ranges from (14-20). The assay is classed as functional, Mus musculus.
Assay [5] deals with L1210. Description: In vivo antitumor activity against L1210 leukemia in 15 mice measured as T/C values; T/C = 15/11. The class given is functional, Mus musculus.
In assay [6] the test system is L1210. Description: In vivo antitumor activity against L1210 leukemia in 5 mice measured as median survival range at 45 mg/kg; Value ranges from (11-13). The assay is classed as functional, Mus musculus.
The subject of assay [7] is Mus musculus. Kind of assay: Average weight change in mouse after treating with 180 mg/kg dose for 7 days. The class given is functional.
Assay [8] deals with L1210. Kind of assay: In vivo anti tumor activity against L1210 leukemia in 5 mice measured as Increased life span at 45 mg/kg. To be noted: Mus musculus. The assay is classed as functional.
Assay [9] concerns Mus musculus. Description: Average weight of the mouse after treating with 180 mg/kg dose for 1 day. The assay is classed as functional.
The test system of assay [10] is Mus musculus. Kind of assay: Average weight of the mouse after treating with 90 mg/kg dose for 1 day. The assay is classed as functional.
The test system of assay [11] is L1210. Kind of assay: In vivo anti tumor activity against L1210 leukemia in 5 mice measured as Increased life span at 90 mg/kg. The class given is functional. To be noted: Mus musculus.
For assay [12], the system named is L1210. Kind of assay: In vivo anti tumor activity against L1210 leukemia in 5 mice measured as Increased life span at 180 mg/kg. The conditions noted are these: Mus musculus. The assay is classed as functional.
The test system of assay [13] is L1210. Kind of assay: In vivo antitumor activity against L1210 leukemia in 5 mice measured as median survival range at 180 mg/kg; Value ranges from (14-23). The assay is classed as functional, Mus musculus.
Assay [14] relates to Mus musculus. Description: Average weight of the mouse after treating with 45 mg/kg dose for 1 day. The class given is functional.
Assay [15] concerns Mus musculus. Description: Average weight change in mouse after treating with 90 mg/kg dose for 7 days. The class given is functional.
In assay [16] the test system is L1210. Description: In vivo antitumor activity against L1210 leukemia in 5 mice measured as median survival range at 90 mg/kg; Value ranges from (13-19). The assay is classed as functional, Mus musculus.
Assay [17] relates to L1210. Description: In vivo antitumor activity against L1210 leukemia in 5 mice measured as Increased life span at 20 mg/kg. The class given is functional. The conditions noted are these: Mus musculus.
In assay [18] the test system is Mus musculus. Kind of assay: Average weight of the mouse after treating with 10 mg/kg dose for 7 days. The assay is classed as functional.
Assay [19] concerns L1210. Description: In vivo antitumor activity against L1210 leukemia in 5 mice measured as median survival range at 10 mg/kg; Value ranges from(14-22). The assay is classed as functional, Mus musculus.
In assay [20] the test system is L1210. Kind of assay: In vivo antitumor activity against L1210 leukemia in 17 mice measured as T/C values; T/C = 17/9. The class given is functional, Mus musculus.
Assay [21] concerns L1210. Description: In vivo anti tumor activity against L1210 leukemia in 5 mice measured as Increased life span at 40 mg/kg. The class given is functional. The conditions noted are these: Mus musculus.
In assay [22] the test system is L1210. Kind of assay: In vivo antitumor activity against L1210 leukemia in 5 mice measured as T/C values; T/C = 22/9. The assay is classed as functional, Mus musculus.
Assay [23] concerns L1210. Description: In vivo antitumor activity against L1210 leukemia in 5 mice measured as Increased life span at 10 mg/kg. The assay is classed as functional. The conditions noted are these: Mus musculus.
Assay [24] deals with Mus musculus. Kind of assay: Average weight of the mouse after treating with 20 mg/kg dose for 1 day. Details: unit not given here. The assay is classed as functional.
Assay [25] relates to Mus musculus. Kind of assay: Average weight of the mouse after treating with 40 mg/kg dose for 7 days. The assay is classed as functional. Details: unit not given beside the values.
Assay [26] deals with L1210. Description: In vivo antitumor activity against L1210 leukemia in 5 mice measured as median survival range at 20 mg/kg; Value ranges from(15-17). The assay is classed as functional, Mus musculus.
For assay [27], the system named is Mus musculus. Description: Average weight of the mouse after treating with 20 mg/kg dose for 7 days. The assay is classed as functional. Further details: unit not given beside the values.
Assay [28] relates to Mus musculus. Description: Average weight of the mouse after treating with 10 mg/kg dose for 1 day. The assay is classed as functional. Further details: unit not given here.
Assay [29] relates to L1210. Description: In vivo antitumor activity against L1210 leukemia in 5 mice measured as median survival range at 40 mg/kg; Value ranges from(21-31). The assay is classed as functional, Mus musculus.
Assay [30] relates to L1210. Description: In vivo antitumor activity against L1210 leukemia in 16 mice measured as T/C values; T/C = 16/9. The assay is classed as functional, Mus musculus.
In assay [31] the test system is Mus musculus. Kind of assay: Average weight of the mouse after treating with 40 mg/kg dose for 1 day. The assay is classed as functional.

Consider three molecules from ChEMBL document CHEMBL1122370 (J Med Chem, 1983).

“And” between values parts separate entries of the source, which are not always exact repeats. Equal entries are not always repeated.

`CN(Cc1cnc2nc(N)nc(N)c2n1)c1ccc(C(=O)NC(CCC(=O)OC(C)(C)C)C(=O)OC(C)(C)C)cc1` (stereo unspecified): the Weight change in [1] was 2.6. Also, the ILS in [2] turned out to be 36. The same molecule yielded an Average weight in assay [3] of 27.6. Also, the Range in [4] was found to be 20. Also, the T/C in [5] is 11.
`CCCCCCCCOC(=O)CCC(NC(=O)c1cc(Cl)c(N(C)Cc2cnc3nc(N)nc(N)c3n2)c(Cl)c1)C(=O)OCCCCCCCC` (stereo unspecified): the figures for the Range in assay [6], in assay [13] and in assay [16] were 13, 23 and 19, respectively. Besides, the Weight change was 5.8 in assay [7]; 1.4 and 3.6 in [15]. The molecule further yielded an ILS at 45 mg/kg in assay [8] of 44%. For the same molecule, the Average weight worked out at 28.2 in assay [9], 28.2 in assay [10] and 26.2 in assay [14]. In [11], this molecule displayed an ILS at 90 mg/kg of 66%. For the same molecule, the ILS at 180 mg/kg in assay [12] turned out to be 122%.
With `CN(Cc1cnc2nc(N)nc(N)c2n1)c1ccc(C(=O)NC(CCC(=O)OCc2cccnc2)C(=O)OCc2cccnc2)cc1` (stereo unspecified), the ILS at 20 mg/kg in [17] stood at 77%. In addition, the figures for the Weight change in [18], in [25] and in [27] were 1.1, 2 and 1, respectively. The results for the Range in [19], in [26] and in assay [29] were 22, 17 and 31, respectively. Moreover, the T/C in assay [20], in [22] and in [30] was 9 throughout. Further, the ILS at 40 mg/kg in assay [21] is 144%. Moreover, in assay [23], the ILS at 10 mg/kg was determined as 88%. Also, the Average weight was 22 in [24], 21.3 in assay [28] and 26 in [31].
